Test results reported in patent publication US9326973B2, “Hepatitis C virus inhibitors” (priority 2012, dated 2016).

Each compound was assayed on HCV replicon, genotype-1a variant with glutamine 30 changed to glutamate in the NS5A protein (assay: microbe, parasite or virus in culture). Conditions: HCV replicon genotype 1a Q30E (Q→E) variant; test compound titrated with an NS5A-targeting compound (BMS-790052 fixed at 200 nM); ranking of synergist activity.
Type: cell-based, HCV genotype 1a
Summary of the method: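 Synergy was assessed by combining several fixed amounts of an NS5A-targeting compound with a titration of the second compound of interest.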

Row | Compound | Fold-Synergistic 1a (Q30E) [fold]
1 | COc1ccc2c(C(=O)N3CCC[C@H]3c3ncc(-c4ccc(-c5ccc(-c6cnc([C@@H]7CCCN7C(=O)c7nc(Cl)cc8cc(OC)ccc78)[nH]6)cc5)cc4)[nH]3)nc(Cl)cc2c1 [Compound S-204] | >100
2 | CC(C)(C)OC(=O)N1C[C@H](O)C[C@H]1C(=O)N[C@H](c1nc(-c2ccc(-c3ccc(-c4c[nH]c([C@@H](NC(=O)[C@@H]5C[C@@H](O)CN5C(=O)OC(C)(C)C)C(C)(C)C)n4)cc3)cc2)c[nH]1)C(C)(C)C [Compound W-96] | >100
3 | CC1(C(=O)N[C@H](c2nc(-c3ccc(-c4ccc(-c5c[nH]c([C@@H](NC(=O)C6(C)OCC(F)(F)CO6)C(C)(C)C)n5)cc4)cc3)c[nH]2)C(C)(C)C)OCC(F)(F)CO1 [Compound L-87] | >100
4 | CC(C)(C)OC(=O)NC1(C(=O)N[C@H](c2nc(-c3ccc(-c4ccc(-c5c[nH]c([C@@H](NC(=O)C6(NC(=O)OC(C)(C)C)CCC(F)(F)CC6)C(C)(C)C)n5)cc4)cc3)c[nH]2)C(C)(C)C)CCC(F)(F)CC1 [Compound L-49] | >100
5 | CC(C)(CO)C(=O)N[C@H](c1nc(-c2ccc(-c3ccc(-c4c[nH]c([C@@H](NC(=O)C(C)(C)CO)C(C)(C)C)n4)cc3)cc2)c[nH]1)C(C)(C)C [Compound L-56] | >100
6 | O=C(N1CCC[C@H]1c1ncc(-c2ccc(-c3ccc(-c4cnc([C@@H]5CCCN5C(=O)C5(c6ccccc6F)CCCC5)[nH]4)cc3)cc2)[nH]1)C1(c2ccccc2F)CCCC1 [Compound S-155] | <10
7 | CC(C)[C@H](NC(=O)C(C)(C)OCC(F)F)c1nc(-c2ccc(-c3ccc(-c4c[nH]c([C@@H](NC(=O)C(C)(C)OCC(F)F)C(C)C)n4)cc3F)cc2)c[nH]1 [Compound N-98] | >100
8 | O=C(CC(c1ccccc1)c1ccccc1)N1CCC[C@H]1c1ncc(-c2ccc(-c3ccc(-c4cnc([C@@H]5CCCN5C(=O)CC(c5ccccc5)c5ccccc5)[nH]4)cc3)cc2)[nH]1 [Compound S-143] | >10
9 | CC(C)N(C(=O)C(=O)N[C@H](c1nc(-c2ccc(-c3ccc(-c4c[nH]c([C@@H](NC(=O)C(=O)N(C(C)C)C5CC5)C5(C)CC5)n4)cc3)cc2)c[nH]1)C1(C)CC1)C1CC1 [Compound W-58] | >100
10 | O=C(c1csc(-c2ccccc2)n1)N1CCC[C@H]1c1ncc(-c2ccc(-c3ccc(-c4cnc([C@@H]5CCCN5C(=O)c5csc(-c6ccccc6)n5)[nH]4)cc3)cc2)[nH]1 [Compound S-138] | >100
11 | COC(C)(C)C(=O)N[C@H](c1nc(-c2ccc(-c3ccc(-c4c[nH]c([C@@H](NC(=O)C(C)(C)OC)C(C)(C)C)n4)c(C)c3)cc2)c[nH]1)C(C)(C)C [Compound N-85] | >100
12 | CC(C)(C)[C@H](NC(=O)[C@H]1C[C@@](C)(O)C1)c1nc(-c2ccc(-c3ccc(-c4c[nH]c([C@@H](NC(=O)[C@H]5C[C@@](C)(O)C5)C(C)(C)C)n4)cc3)cc2)c[nH]1 [Compound W-169] | >100
13 | CC(C)[C@H](NC(=O)[C@@H]1C[C@@H](F)CN1C(=O)OC(C)(C)C)c1nc(-c2ccc(-c3ccc(-c4c[nH]c([C@@H](NC(=O)[C@@H]5C[C@@H](F)CN5C(=O)OC(C)(C)C)C(C)C)n4)cc3)cc2)c[nH]1 [Compound W-181] | >100
14 | CC(C)(C)[C@H](NC(=O)C1(N2CCOCC2)CC1)c1nc(-c2ccc(-c3ccc(-c4c[nH]c([C@@H](NC(=O)C5(N6CCOCC6)CC5)C(C)(C)C)n4)cc3)cc2)c[nH]1 [Compound L-31] | >100
15 | CC(C)(C)[C@H](NC(=O)C12CC3CC(CC(C3)C1)C2)c1nc(-c2ccc(-c3ccc(-c4c[nH]c([C@@H](NC(=O)C56CC7CC(CC(C7)C5)C6)C(C)(C)C)n4)cc3)cc2)c[nH]1 [Compound N-62] | >100
16 | CC(C)(C)[C@H](Nc1nc(C(F)(F)F)c(Cl)s1)c1nc(-c2ccc(-c3ccc(-c4c[nH]c([C@@H](Nc5nc(C(F)(F)F)c(Cl)s5)C(C)(C)C)n4)cc3)cc2)c[nH]1 [Compound W-180] | <10
17 | CC(C)(C)OC(=O)N[C@]1(C(=O)N[C@H](c2nc(-c3ccc(-c4ccc(-c5c[nH]c([C@@H](NC(=O)[C@@]6(NC(=O)OC(C)(C)C)C[C@H]6c6ccccc6)C(C)(C)C)n5)cc4)cc3)c[nH]2)C(C)(C)C)C[C@H]1c1ccccc1 [Compound W-8] | >100
18 | CC(C)(C)C(=O)N[C@H](c1ncc(-c2ccc(-c3ccc(-c4cnc([C@@H](NC(=O)C(C)(C)C)C(C)(C)CF)[nH]4)cc3)cc2)[nH]1)C(C)(C)CF [Compound Y-68] | >100
19 | COC(C)(C)C(=O)N[C@H](c1nc(-c2ccc(-c3ccc(-c4c[nH]c([C@@H](NC(=O)C(C)(C)OC)C5(C)CC5)n4)cc3)cc2)c[nH]1)C1(C)CC1 [Compound Y-63] | >100
20 | COC(=O)N[C@H](C(=O)N[C@@H](CC(C)C)c1nc(-c2ccc(-c3ccc(-c4c[nH]c([C@H](CC(C)C)NC(=O)[C@@H](NC(=O)OC)C(C)C)n4)cc3)cc2)c[nH]1)C(C)C [Compound N-30] | <10

Row | Compound | Fold-Synergistic 1a (Q30E) [fold]
21 | COC(=O)N[C@H](C(=O)N[C@H](c1nc(-c2ccc(-c3ccc(-c4c[nH]c([C@@H](NC(=O)[C@@H](NC(=O)OC)C(C)C)C5CC5)n4)cc3)cc2)c[nH]1)C1CC1)C(C)C [Compound P-3] | >10
22 | COC(=O)C1(C(=O)N[C@H](c2nc(-c3ccc(-c4ccc(-c5c[nH]c([C@@H](NC(=O)C6(C(=O)OC)CC6)C(C)(C)C)n5)cc4)cc3)c[nH]2)C(C)(C)C)CC1 [Compound W-124] | >100
23 | CC(C)[C@H](NC(=O)[C@@H]1C2C[C@@H]2CN1C(=O)OC(C)(C)C)c1nc(-c2ccc(-c3ccc(-c4c[nH]c([C@@H](NC(=O)[C@@H]5C6C[C@@H]6CN5C(=O)OC(C)(C)C)C(C)C)n4)cc3)cc2)c[nH]1 (stereo partly shown) [Compound W-74] | >100
24 | C[C@H]1CCN(C(=O)C2CCC(F)(F)CC2)[C@@H]1c1nc(-c2ccc(-c3ccc(-c4c[nH]c([C@@H]5[C@@H](C)CCN5C(=O)C5CCC(F)(F)CC5)n4)cc3)cc2)c[nH]1 [Compound W-188] | >10
25 | O=C(c1cc2ccccc2[nH]1)N1CCC[C@H]1c1ncc(-c2ccc(-c3ccc(-c4cnc([C@@H]5CCCN5C(=O)c5cc6ccccc6[nH]5)[nH]4)cc3)cc2)[nH]1 [Compound S-120] | <10
26 | CC(C)(C)[C@H](NC(=O)C(C)(C)C1(O)CCCCC1)c1nc(-c2ccc(-c3ccc(-c4c[nH]c([C@@H](NC(=O)C(C)(C)C5(O)CCCCC5)C(C)(C)C)n4)cc3)cc2)c[nH]1 [Compound P-160] | >100
27 | C[C@@H]1CN(C(=O)C(C)(C)C(=O)N[C@H](c2nc(-c3ccc(-c4ccc(-c5c[nH]c([C@@H](NC(=O)C(C)(C)C(=O)N6C[C@@H](C)O[C@@H](C)C6)C(C)(C)C)n5)cc4)cc3)c[nH]2)C(C)(C)C)C[C@H](C)O1 [Compound W-154] | >100
28 | CC(=O)N(C)C1(C(=O)N[C@H](c2nc(-c3ccc(-c4ccc(-c5c[nH]c([C@@H](NC(=O)C6(N(C)C(C)=O)CC6)C(C)(C)C)n5)cc4)cc3)c[nH]2)C(C)(C)C)CC1 [Compound L-11] | >100
29 | CC(C)[C@H](O)C(=O)N[C@H](c1nc(-c2ccc(-c3ccc(-c4c[nH]c([C@@H](NC(=O)[C@@H](O)C(C)C)C(C)(C)C)n4)cc3)cc2)c[nH]1)C(C)(C)C [Compound L-78] | >100
30 | O=C(c1nccc2ccccc12)N1CCC[C@H]1c1ncc(-c2ccc(-c3ccc(-c4cnc([C@@H]5CCCN5C(=O)c5nccc6ccccc56)[nH]4)cc3)cc2)[nH]1 [Compound S-202] | >100
31 | CC1(C)CC(C(=O)N[C@H](c2nc(-c3ccc(-c4ccc(-c5c[nH]c([C@@H](NC(=O)C6CC(C)(C)C6)C(C)(C)C)n5)cc4)cc3)c[nH]2)C(C)(C)C)C1 [Compound L-53] | >100
32 | O=C(c1ccc2ccccc2n1)N1CCC[C@H]1c1ncc(-c2ccc(-c3ccc(-c4cnc([C@@H]5CCCN5C(=O)c5ccc6ccccc6n5)[nH]4)cc3)cc2)[nH]1 [Compound S-123] | >100
33 | CC(C)(C)[C@H](NC(=O)C(=O)c1ccco1)c1nc(-c2ccc(-c3ccc(-c4c[nH]c([C@@H](NC(=O)C(=O)c5ccco5)C(C)(C)C)n4)cc3)cc2)c[nH]1 [Compound W-20] | >100
34 | CC(C)[C@H](NC(=O)C(=O)N(C(C)C)C1CC1)c1nc(-c2ccc(-c3ccc(-c4c[nH]c([C@@H](NC(=O)C(=O)N(C(C)C)C5CC5)C(C)C)n4)cc3)cc2)c[nH]1 [Compound W-55] | >100
35 | CC(C)(C)OC(=O)NC1CCC(C(=O)N[C@H](c2nc(-c3ccc(-c4ccc(-c5c[nH]c([C@@H](NC(=O)C6CCC(NC(=O)OC(C)(C)C)CC6)C(C)(C)C)n5)cc4)cc3)c[nH]2)C(C)(C)C)CC1 (stereo partly shown) [Compound S-270] | >100
36 | O=C(c1cccc2ccccc12)N1CCC[C@H]1c1ncc(-c2ccc(-c3ccc(-c4cnc([C@@H]5CCCN5C(=O)c5cccc6ccccc56)[nH]4)cc3)cc2)[nH]1 [Compound S-119] | >10
37 | CC(C)N(C(=O)OC1(C(=O)N[C@H](c2nc(-c3ccc(-c4ccc(-c5c[nH]c([C@@H](NC(=O)C6(OC(=O)N(C(C)C)C(C)C)CC6)C6(C)CC6)n5)cc4)cc3)c[nH]2)C2(C)CC2)CC1)C(C)C [Compound L-39] | >100
38 | COC(=O)N[C@H](C(=O)N[C@@H](C)c1nc(-c2ccc(-c3ccc(-c4c[nH]c([C@H](C)NC(=O)[C@@H](NC(=O)OC)C(C)C)n4)cc3)cc2)c[nH]1)C(C)C [Compound N-38] | <10
39 | CC(C)CC(=O)NC1(c2nc(-c3ccc(-c4ccc(-c5c[nH]c(C6(NC(=O)CC(C)C)Cc7ccccc7C6)n5)cc4)cc3)c[nH]2)Cc2ccccc2C1 [Compound N-19] | <10
40 | CC(C)[C@H](NC(=O)C1(C)CCCC1)c1nc(-c2ccc3c(c2)Cc2cc(-c4c[nH]c([C@@H](NC(=O)C5(C)CCCC5)C(C)C)n4)ccc2-3)c[nH]1 [Compound N-72] | >100
